Key:
[1] = tested on: mouse peritonitis; experiment: LPS-induced mouse peritonitis model, peritoneal neutrophils by flow cytometry (Ly6G); assay type: in vivo; conditions: JE i.p. two consecutive days, LPS i.p. day 3, 4 hours, vs PBS
Protocol: FIG. 4A-4B. Bacterial Supernatant <10 kD fraction inhibits mouse peritonitis in vivo. 6-week old B6 mice were i.p. injected with <10 kD fraction from LF, TS medium, or PBS (500 μL/dose) at day 0 and day 1. At day 2, mice were given LPS (10 μg/mouse) or PBS via i.p. […] (FIG. 4A) The recruited neutrophils were quantified by flow cytometry using the neutrophil markers Ly6G and data were analyzed by FlowJo Software. (FIG. 4B) Neutrophil numbers are shown as mean±s.d., **p<0.01, n=3 per group.
FIG. 9A-9C. FACS representation of mouse peritonitis model. Histograms were made from FACS gating of cells collected from the peritoneal cavity. (FIG. 9A) Mice were pre-treated for two consecutive days with compound JE and then received LPS. (FIG. 9B) Mice received only LPS. (FIG. 9C) Another group received PBS injected for two consecutive days to serve as a negative control. […]
Commensal bacteria are non-invading bacteria that habit the host gastrointestinal tract without causing harm. […] We then measured the ability of the <10 kDa fraction to cross intestinal epithelium with the tight junctions without disrupting the integrity. […] To determine if the <10 kD fraction suppresses LPS-induced inflammatory responses in vivo, we intraperitoneally injected the <10 kDa fraction into C57/Bl6 mice followed by LPS and then analyzed peritoneal numbers of neutrophils by flow cytometry. […]

[2] = In vivo toxicity of JE given I.P.: serum ALT and organ histology; conditions: JE 50 μM twice daily I.P. for 3 or 5 days
Protocol: To test if JE has any toxicity, we first incubated murine macrophages with JE at different concentrations at 37° C. for two days, and determined viability of the cells. […] Further we injected the JE at 50 μM twice daily via I.P. for 3 or 5 days and then determined ALT levels in sera and examined the morphology in key organs, liver, kidney, spleen, intestines etc.

[3] = tested on: NF-kB; experiment: MQ on translocation of NF-kB (p65) to the nucleus in HCECs, western blot; assay type: cell-based, human; conditions: MQ 50 μM overnight, FLA 100 ng/ml 3 hours
Protocol: Materials and Methods: Human corneal epithelial cells were grown in culture. Cells were then plated in DMEM. The cells cultures were then kept at 37° C. with 5% CO2. Once ready, HCECs were then incubated with MQ at a concentration of 50 uM overnight. […] Samples were treated for 3 hours and then samples were collected. Nuclear and cytoplasmic fractions were obtained using 0.1% NP-40 buffer. Cells were pelleted and the supernatant was discarded. Cells were then treated with 25 μl of NP-40 lysis buffer. Upon addition of the buffer cells were centrifuged for 10 minutes at 3000 rpm at 4° C. The supernatant was collected which is the cytoplasmic fraction and the remaining pellet was the nuclear fraction. The pellet was then washed three times to remove any remaining cytoplasmic fraction.
Both fractions were then treated with 2x SDS loading buffer and the protein was denatured at 100° C. and placed on ice. Proteins were run on a gel at […] until the dye front neared the bottom of the gel. Protein was then dry transferred to a membrane. The membrane was blocked in 5% blocking buffer overnight. The following day the membrane was washed three times with PBS-T and anti-mouse p65-NF-kB rabbit polyclonal antibody was added. […]
The inhibitory effects on the translocation of NF-kB from the cytoplasm to the nucleus following stimulation with FLA was also assessed. […]

Molecule	peritoneal neutrophil recruitment [1]	tissue damage in organs by histology (liver, kidney, spleen, intestines) [2]	ALT levels in sera ([2]; vs control group)	translocation of NF-kB to the nucleus [3]
CC(=O)O[C@@H]1CC[C@H]2[C@H]3CC[C@H]4CC(F)(F)CC[C@]4(C)[C@H]3CC[C@]12C [JE, 3,3-Difluoro-5-alpha-androstan-17-beta-yl acetate]	reduced	did not see any tissue damage	no significant higher levels	–
Prednicarbate [MQ]	–	–	–	inhibited
